From patent US10597388B2, “Pyridazinone herbicides” (FMC CORPORATION, priority 2014, dated 2020)

Key:
Test in all cases: Test D controlled growth environment herbicide test, pre- and postemergence
Assay type in all cases: in vivo
[1] = tested on: chickweed (common chickweed, Stellaria media)
Summary of the method: (§1)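 Rating is visual, 0–100 scale (100 = complete control), made against untreated plants 14–21 d after treatment in controlled growth conditions. Postemergence sprays went onto 1- to 4-leaf plants in peat medium; preemergence sprays onto silt loam after sowing; formulation included a surfactant.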

[2] = tested on: wheat, winter (winter wheat, Triticum aestivum)
Summary of the method: as §1

[3] = tested on: windgrass (Apera spica-venti)
Summary of the method: as §1

[4] = tested on: Russian thistle (Salsola kali)
Summary of the method: as §1

[5] = tested on: wheat, spring (spring wheat, Triticum aestivum)
Summary of the method: as §1

[6] = tested on: canarygrass (Phalaris minor)
Summary of the method: as §1

[7] = tested on: ryegrass, Italian (Italian ryegrass, Lolium multiflorum)
Summary of the method: as §1

[8] = tested on: deadnettle (henbit deadnettle, Lamium amplexicaule)
Summary of the method: as §1

[9] = tested on: blackgrass (Alopecurus myosuroides)
Summary of the method: as §1

[10] = tested on: field violet (Viola arvensis)
Summary of the method: as §1

kochia (Kochia scoparia) = tested on: kochia (Kochia scoparia)
Summary of the method: as §1

[11] = tested on: foxtail, green (green foxtail, Setaria viridis)
Summary of the method: as §1

[12] = tested on: lambsquarters (Chenopodium album)
Summary of the method: as §1

[13] = Postemergence, 31 g ai/ha, scale 0 to 100 (0 no effect, 100 complete control)
[14] = Postemergence, 125 g ai/ha, visual rating on scale 0 (no effect) to 100 (complete control), 14 to 21 d
[15] = Postemergence, 250 g ai/ha, scale 0 to 100 (0 no effect, 100 complete control)
[16] = Preemergence, 125 g ai/ha, scale 0 to 100 (0 no effect, 100 complete control)
[17] = Preemergence, 250 g ai/ha, scale 0 to 100 (0 no effect, 100 complete control)
[18] = postemergence, 62 g ai/ha, scale 0 to 100, 0 no effect, 100 complete control

`CC(=O)Oc1c(Br)nn(C)c(=O)c1-c1c(C)ccc2ccccc12` [Compound 129] was tested, and the “Chickweed plant response rating” value [1, 13] was 100, the “Plant response rating, Chickweed” value [1, 14] was 100 and the “Plant response rating, Chickweed” value [1, 15] was 100. The “Plant response rating (scale of 0 to 100), Chickweed” value ([1]; Preemergence, 31 g ai/ha) was 98, the “Plant response rating (scale of 0 to 100), Chickweed” value ([1]; Preemergence, 62 g ai/ha) was 100 and the “Plant response rating, Chickweed” value [1, 16] was 98. The “Plant response rating, Chickweed” value [1, 17] was 100, the “Plant response rating, Chickweed” value [1, 18] was 100 and the “Wheat, Winter plant response rating” value [2, 13] was 30. The “Plant response rating, Wheat, Winter” value [2, 14] was 40, the “Plant response rating, Wheat, Winter” value [2, 15] was 55 and the “Plant response rating (scale of 0 to 100), Wheat, Winter” value ([2]; Preemergence, 31 g ai/ha) was 10. For the same compound, the “Plant response rating (scale of 0 to 100), Wheat, Winter” value ([2]; Preemergence, 62 g ai/ha) was 35, the “Plant response rating, Wheat, Winter” value [2, 16] was 45 and the “Plant response rating, Wheat, Winter” value [2, 17] was 60. For the same compound, the “Plant response rating, Wheat, Winter” value [2, 18] was 35, the “Windgrass plant response rating” value [3, 13] was 20 and the “Plant response rating, Windgrass” value [3, 14] was 55. The “Plant response rating, Windgrass” value [3, 15] was 90, the “Plant response rating (scale of 0 to 100), Windgrass” value ([3]; Preemergence, 31 g ai/ha) was 35 and the “Plant response rating (scale of 0 to 100), Windgrass” value ([3]; Preemergence, 62 g ai/ha) was 45. For the same compound, the “Plant response rating, Windgrass” value [3, 16] was 75, the “Plant response rating, Windgrass” value [3, 17] was 80 and the “Plant response rating, Windgrass” value [3, 18] was 35. For the same compound, the “Russian Thistle plant response rating” value [4, 13] was 70, the “Plant response rating, Russian Thistle” value [4, 14] was 85 and the “Plant response rating, Russian Thistle” value [4, 15] was 90. The “Plant response rating (scale of 0 to 100), Russian Thistle” value ([4]; Preemergence, 31 g ai/ha) was 10, the “Plant response rating (scale of 0 to 100), Russian Thistle” value ([4]; Preemergence, 62 g ai/ha) was 50 and the “Plant response rating, Russian Thistle” value [4, 16] was 100. For the same compound, the “Plant response rating, Russian Thistle” value [4, 17] was 100, the “Plant response rating, Russian Thistle” value [4, 18] was 80 and the “Wheat, Spring plant response rating” value [5, 13] was 25. The “Plant response rating, Wheat, Spring” value [5, 14] was 50, the “Plant response rating, Wheat, Spring” value [5, 15] was 70 and the “Plant response rating (scale of 0 to 100), Wheat, Spring” value ([5]; Preemergence, 31 g ai/ha) was 25. The “Plant response rating (scale of 0 to 100), Wheat, Spring” value ([5]; Preemergence, 62 g ai/ha) was 50, the “Plant response rating, Wheat, Spring” value [5, 16] was 60 and the “Plant response rating, Wheat, Spring” value [5, 17] was 75. For the same compound, the “Plant response rating, Wheat, Spring” value [5, 18] was 35, the “Canarygrass plant response rating” value [6, 13] was 30 and the “Plant response rating, Canarygrass” value [6, 14] was 75. The “Plant response rating, Canarygrass” value [6, 15] was 80, the “Plant response rating (scale of 0 to 100), Canarygrass” value ([6]; Preemergence, 31 g ai/ha) was 5 and the “Plant response rating (scale of 0 to 100), Canarygrass” value ([6]; Preemergence, 62 g ai/ha) was 15. For the same compound, the “Plant response rating, Canarygrass” value [6, 16] was 60, the “Plant response rating, Canarygrass” value [6, 17] was 90 and the “Plant response rating, Canarygrass” value [6, 18] was 55. For the same compound, the “Ryegrass, Italian plant response rating” value [7, 13] was 80, the “Plant response rating, Ryegrass, Italian” value [7, 14] was 90 and the “Plant response rating, Ryegrass, Italian” value [7, 15] was 90. For the same compound, the “Plant response rating (scale of 0 to 100), Ryegrass, Italian” value ([7]; Preemergence, 31 g ai/ha) was 70, the “Plant response rating (scale of 0 to 100), Ryegrass, Italian” value ([7]; Preemergence, 62 g ai/ha) was 80 and the “Plant response rating, Ryegrass, Italian” value [7, 16] was 98. The “Plant response rating, Ryegrass, Italian” value [7, 17] was 100, the “Plant response rating, Ryegrass, Italian” value [7, 18] was 85 and the “Deadnettle plant response rating” value [8, 13] was 35. For the same compound, the “Plant response rating, Deadnettle” value [8, 14] was 70, the “Plant response rating, Deadnettle” value [8, 15] was 95 and the “Plant response rating (scale of 0 to 100), Deadnettle” value ([8]; Preemergence, 31 g ai/ha) was 60. For the same compound, the “Plant response rating (scale of 0 to 100), Deadnettle” value ([8]; Preemergence, 62 g ai/ha) was 75, the “Plant response rating, Deadnettle” value [8, 16] was 75 and the “Plant response rating, Deadnettle” value [8, 17] was 95. The “Plant response rating, Deadnettle” value [8, 18] was 40, the “Blackgrass plant response rating” value [9, 13] was 35 and the “Plant response rating, Blackgrass” value [9, 14] was 60. For the same compound, the “Plant response rating, Blackgrass” value [9, 15] was 75, the “Plant response rating (scale of 0 to 100), Blackgrass” value ([9]; Preemergence, 31 g ai/ha) was 10 and the “Plant response rating, Blackgrass” value ([9]; Preemergence, 62 g ai/ha, scale 0 to 100 (0 no effect, 100 complete control)) was 15. For the same compound, the “Plant response rating, Blackgrass” value [9, 16] was 55, the “Plant response rating, Blackgrass” value [9, 17] was 75 and the “Plant response rating, Blackgrass” value [9, 18] was 45. For the same compound, the “Field Violet plant response rating” value [10, 13] was 65, the “Plant response rating, Field Violet” value [10, 14] was 70 and the “Plant response rating, Field Violet” value [10, 15] was 75. For the same compound, the “Plant response rating (scale of 0 to 100), Field Violet” value ([10]; Preemergence, 31 g ai/ha) was 85, the “Plant response rating (scale of 0 to 100), Field Violet” value ([10]; Preemergence, 62 g ai/ha) was 85 and the “Plant response rating, Field Violet” value [10, 16] was 85. For the same compound, the “Plant response rating, Field Violet” value [10, 17] was 100, the “Plant response rating, Field Violet” value [10, 18] was 70 and the “Kochia plant response rating” value (kochia (Kochia scoparia); [13]) was 60. For the same compound, the “Plant response rating, Kochia” value (kochia (Kochia scoparia); [14]) was 80, the “Plant response rating, Kochia” value (kochia (Kochia scoparia); [15]) was 85 and the “Plant response rating (scale of 0 to 100), Kochia” value (kochia (Kochia scoparia); Preemergence, 31 g ai/ha) was 5. The “Plant response rating (scale of 0 to 100), Kochia” value (kochia (Kochia scoparia); Preemergence, 62 g ai/ha) was 55, the “Plant response rating, Kochia” value (kochia (Kochia scoparia); [16]) was 85 and the “Plant response rating, Kochia” value (kochia (Kochia scoparia); [17]) was 100. The “Plant response rating, Kochia” value (kochia (Kochia scoparia); [18]) was 70, the “Foxtail, Green plant response rating” value [11, 13] was 80 and the “Plant response rating, Foxtail, Green” value [11, 14] was 85. The “Plant response rating, Foxtail, Green” value [11, 15] was 95, the “Plant response rating (scale of 0 to 100), Foxtail, Green” value ([11]; Preemergence, 31 g ai/ha) was 35 and the “Plant response rating (scale of 0 to 100), Foxtail, Green” value ([11]; Preemergence, 62 g ai/ha) was 70. For the same compound, the “Plant response rating, Foxtail, Green” value [11, 16] was 80, the “Plant response rating, Foxtail, Green” value [11, 17] was 95 and the “Plant response rating, Foxtail, Green” value [11, 18] was 80. The “Lambsquarters plant response rating” value [12, 13] was 75, the “Plant response rating, Lambsquarters” value [12, 14] was 95 and the “Plant response rating, Lambsquarters” value [12, 15] was 100. The “Plant response rating (scale of 0 to 100), Lambsquarters” value ([12]; Preemergence, 31 g ai/ha) was 100, the “Plant response rating (scale of 0 to 100), Lambsquarters” value ([12]; Preemergence, 62 g ai/ha) was 75 and the “Plant response rating, Lambsquarters” value [12, 16] was 100. For the same compound, the “Plant response rating, Lambsquarters” value [12, 17] was 100 and the “Plant response rating, Lambsquarters” value [12, 18] was 90.
